Inconclusive results and toxic doses are left out. The calls were made as follows: active = survival T/C of 150% or more; inactive = T/C below 125% in these data.
Test system: CD2F1 mice, L1210 leukemia ip, survival T/C
Assay: NCI In Vivo Anticancer Drug Screen. Data for tumor model L1210 Leukemia (intraperitoneal) in CD2F1 (CDF1) mice
Conditions: higher = longer survival
Procedure, shortened: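 Vehicle-treated tumor-bearing mice served as controls (C) for compound-treated mice (T). Reported figure is T divided by C.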

[1] = endpoint: mean survival time, dose: 100.0 mg/kg/injection, schedule: Q01DX009 (ip), vehicle: saline with Tween-80
[2] = endpoint: mean survival time, dose: 100.0 mg/kg/injection, schedule: Q04DX003 (ip), vehicle: saline with Tween-80
[3] = endpoint: mean survival time, dose: 200.0 mg/kg/injection, schedule: Q01DX009 (ip), vehicle: saline with Tween-80
[4] = endpoint: mean survival time, dose: 200.0 mg/kg/injection, schedule: Q04DX003 (ip), vehicle: saline with Tween-80
[5] = endpoint: mean survival time, dose: 400.0 mg/kg/injection, schedule: Q04DX003 (ip), vehicle: saline with Tween-80
[6] = endpoint: mean survival time, dose: 6.25 mg/kg/injection, schedule: Q01DX001 (ip), vehicle: saline with Tween-80
[7] = endpoint: mean survival time, dose: 6.25 mg/kg/injection, schedule: Q01DX009 (ip), vehicle: saline with Tween-80
[8] = endpoint: mean survival time, dose: 12.5 mg/kg/injection, schedule: Q01DX001 (ip), vehicle: saline with Tween-80
[9] = endpoint: mean survival time, dose: 12.5 mg/kg/injection, schedule: Q01DX009 (ip), vehicle: saline with Tween-80
[10] = endpoint: mean survival time, dose: 1.25 mg/kg/injection, schedule: Q01DX009 (ip), vehicle: saline with Tween-80
[11] = endpoint: mean survival time, dose: 2.5 mg/kg/injection, schedule: Q01DX009 (ip), vehicle: saline with Tween-80
[12] = endpoint: mean survival time, dose: 5.0 mg/kg/injection, schedule: Q01DX009 (ip), vehicle: saline with Tween-80
[13] = endpoint: mean survival time, dose: 50.0 mg/kg/injection, schedule: Q04DX003 (ip), vehicle: saline with Tween-80
[14] = endpoint: mean survival time, dose: 100.0 mg/kg/injection, schedule: Q04DX003 (ip), vehicle: saline
[15] = endpoint: mean survival time, dose: 200.0 mg/kg/injection, schedule: Q04DX003 (ip), vehicle: saline
[16] = endpoint: mean survival time, dose: 400.0 mg/kg/injection, schedule: Q01DX009 (ip), vehicle: saline with Tween-80
[17] = endpoint: mean survival time, dose: 25.0 mg/kg/injection, schedule: Q01DX001 (ip), vehicle: saline with Tween-80
[18] = endpoint: mean survival time, dose: 100.0 mg/kg/injection, schedule: Q01DX009 (ip), vehicle: saline
[19] = endpoint: mean survival time, dose: 200.0 mg/kg/injection, schedule: Q01DX009 (ip), vehicle: saline
[20] = endpoint: mean survival time, dose: 400.0 mg/kg/injection, schedule: Q01DX009 (ip), vehicle: saline

Measured: T/C

COc1ccccc1NC(=O)Nc1ccc(C(=O)OCC(C)C)cc1
inactive: [1] 89 % of control | [2] 92 % of control | [3] 88 % of control | [4] 88 % of control | [5] 86 % of control

CC(=O)OCC1OC([Se][As](C)C)C(OC(C)=O)C(OC(C)=O)C1OC(C)=O (stereo not drawn)
inactive: endpoint: mean survival time, dose: 3.13 mg/kg/injection, schedule: Q01DX009 (ip), vehicle: saline with Tween-80 98 % of control | [6] 95 % of control | [7] 96 % of control | [8] 97 % of control | [9] 96 % of control

CC(=O)O[C@@H]1[C@@H](O)[C@H]2O[C@@H]3C=C(C)CC[C@]3(CO)[C@]1(C)[C@@]21CO1
inactive: [10] 103 % of control | [11] 115 % of control | [12] 115 % of control

NC(=O)c1c(Cl)n(C2OC(CO)C(O)C2O)c2ncnc(N)c12 (stereo not drawn)
inactive: endpoint: mean survival time, dose: 1.0 mg/kg/injection, schedule: Q01DX005 (ip), vehicle: distilled water + Tween-80 103 % of control | endpoint: mean survival time, dose: 2.0 mg/kg/injection, schedule: Q01DX005 (ip), vehicle: distilled water + Tween-80 101 % of control | endpoint: mean survival time, dose: 4.0 mg/kg/injection, schedule: Q01DX005 (ip), vehicle: distilled water + Tween-80 106 % of control | endpoint: mean survival time, dose: 8.0 mg/kg/injection, schedule: Q01DX005 (ip), vehicle: distilled water + Tween-80 103 % of control | endpoint: mean survival time, dose: 16.0 mg/kg/injection, schedule: Q01DX005 (ip), vehicle: distilled water + Tween-80 114 % of control | endpoint: mean survival time, dose: 32.0 mg/kg/injection, schedule: Q01DX005 (ip), vehicle: distilled water + Tween-80 109 % of control

CC1=Nc2cc(C)c(C)cc2N2C1=CC1=C(C(=O)c3cc4ccccc4cc3C1=O)C2C (stereo not drawn)
inactive: endpoint: mean survival time, dose: 25.0 mg/kg/injection, schedule: Q04DX003 (ip), vehicle: saline with Tween-80 97 % of control | [13] 108 % of control | [14] 110 % of control | [15] 107 % of control

O=[N+]([O-])c1ccc(N=C(Cl)c2ccccc2)cc1
inactive: [1] 101 % of control | [3] 104 % of control | [16] 104 % of control

CCOC(=O)CCCSc1nn(C2OC(COC(=O)c3ccccc3)C(OC(=O)c3ccccc3)C2OC(=O)c2ccccc2)c(=O)[nH]c1=O (stereo not drawn)
inactive: endpoint: mean survival time, dose: 12.5 mg/kg/injection, schedule: Q01DX005 (ip), vehicle: distilled water + Tween-80 93 % of control | endpoint: mean survival time, dose: 25.0 mg/kg/injection, schedule: Q01DX005 (ip), vehicle: distilled water + Tween-80 90 % of control | endpoint: mean survival time, dose: 50.0 mg/kg/injection, schedule: Q01DX005 (ip), vehicle: distilled water + Tween-80 93 % of control | endpoint: mean survival time, dose: 100.0 mg/kg/injection, schedule: Q01DX005 (ip), vehicle: distilled water + Tween-80 88 % of control | endpoint: mean survival time, dose: 200.0 mg/kg/injection, schedule: Q01DX005 (ip), vehicle: distilled water + Tween-80 92 % of control

CC1(C)OCCCO1
inactive: endpoint: mean survival time, dose: 25.0 mg/kg/injection, schedule: Q04DX002 (ip), vehicle: saline 104 % of control | endpoint: mean survival time, dose: 50.0 mg/kg/injection, schedule: Q04DX002 (ip), vehicle: saline 96 % of control | endpoint: mean survival time, dose: 100.0 mg/kg/injection, schedule: Q04DX002 (ip), vehicle: saline 100 % of control

Nc1cc(Sc2ccc(Cl)cc2)nc(N)n1
inactive: [17] 102 % of control | endpoint: mean survival time, dose: 50.0 mg/kg/injection, schedule: Q01DX001 (ip), vehicle: saline with Tween-80 102 % of control | endpoint: mean survival time, dose: 100.0 mg/kg/injection, schedule: Q01DX001 (ip), vehicle: saline with Tween-80 98 % of control

CC(=O)Nc1nc(N)nc2nonc12
inactive: endpoint: mean survival time, dose: 12.5 mg/kg/injection, schedule: Q01DX005 (ip), vehicle: saline with Tween-80 100 % of control | endpoint: mean survival time, dose: 25.0 mg/kg/injection, schedule: Q01DX005 (ip), vehicle: saline with Tween-80 98 % of control | endpoint: mean survival time, dose: 50.0 mg/kg/injection, schedule: Q01DX005 (ip), vehicle: saline with Tween-80 100 % of control | endpoint: mean survival time, dose: 100.0 mg/kg/injection, schedule: Q01DX005 (ip), vehicle: saline with Tween-80 96 % of control | endpoint: mean survival time, dose: 200.0 mg/kg/injection, schedule: Q01DX005 (ip), vehicle: saline with Tween-80 93 % of control

CC(=O)c1cccc(N=C(N)N)c1
inactive: endpoint: mean survival time, dose: 75.0 mg/kg/injection, schedule: Q01DX001 (ip), vehicle: saline with Tween-80 98 % of control | endpoint: mean survival time, dose: 150.0 mg/kg/injection, schedule: Q01DX001 (ip), vehicle: saline with Tween-80 96 % of control | endpoint: mean survival time, dose: 300.0 mg/kg/injection, schedule: Q01DX001 (ip), vehicle: saline with Tween-80 97 % of control

COCCC1(CN2c3ccccc3Sc3ccc(Cl)cc32)CCN(C)C1 (stereo not drawn)
inactive: [14] 102 % of control | [15] 105 % of control

O=[N+]([O-])C1C2C=CC(C2)C1c1ccccc1 (stereo not drawn)
inactive: [1] 102 % of control | [2] 98 % of control | [3] 95 % of control | [4] 102 % of control | [16] 98 % of control | [5] 102 % of control

CC(C[P+](c1ccccc1)(c1ccccc1)c1ccccc1)C(O)(C(=O)c1ccccc1)c1ccccc1 (stereo not drawn)
inactive: [6] 108 % of control | [7] 95 % of control | [8] 103 % of control | [9] 110 % of control | [17] 108 % of control

CC1OC2CC(O)C1(O)C1=C2C(O)=C(C(N)=O)C(=N)C1=O (stereo not drawn)
inactive: endpoint: median survival time, dose: 0.31 mg/kg/injection, schedule: Q01DX005 (ip), vehicle: saline 101 % of control | endpoint: median survival time, dose: 0.62 mg/kg/injection, schedule: Q01DX005 (ip), vehicle: saline 101 % of control | endpoint: median survival time, dose: 1.25 mg/kg/injection, schedule: Q01DX005 (ip), vehicle: saline 101 % of control | endpoint: median survival time, dose: 2.5 mg/kg/injection, schedule: Q01DX005 (ip), vehicle: saline 98 % of control | endpoint: median survival time, dose: 5.0 mg/kg/injection, schedule: Q01DX005 (ip), vehicle: saline 108 % of control

Nc1ccccc1N=Cc1cccc([N+](=O)[O-])c1
inactive: [1] 94 % of control | [2] 101 % of control | [3] 96 % of control | [4] 98 % of control | [16] 100 % of control | [5] 101 % of control

COC(OC)C(OC(C)=O)C(OC(C)=O)C(COC(C)=O)OC(C)=O (stereo not drawn)
inactive: endpoint: mean survival time, dose: 100.0 mg/kg/injection, schedule: Q01DX001 (ip), vehicle: saline 107 % of control | endpoint: mean survival time, dose: 200.0 mg/kg/injection, schedule: Q01DX001 (ip), vehicle: saline 95 % of control | endpoint: mean survival time, dose: 400.0 mg/kg/injection, schedule: Q01DX001 (ip), vehicle: saline 101 % of control

c1ccc2c(c1)CCCN2
inactive: endpoint: mean survival time, dose: 31.5 mg/kg/injection, schedule: Q04DX003 (ip), vehicle: saline with Tween-80 98 % of control | [13] 102 % of control | endpoint: mean survival time, dose: 63.0 mg/kg/injection, schedule: Q04DX003 (ip), vehicle: saline with Tween-80 98 % of control | [2] 102 % of control | endpoint: mean survival time, dose: 125.0 mg/kg/injection, schedule: Q04DX003 (ip), vehicle: saline with Tween-80 106 % of control | [4] 93 % of control | [5] 86 % of control

O=C1C=CC(=O)N1c1ccc(O)cc1
inactive: [10] 100 % of control | [11] 98 % of control | [12] 93 % of control | endpoint: mean survival time, dose: 5.0 mg/kg/injection, schedule: Q04DX003 (ip), vehicle: saline with Tween-80 98 % of control

CCOCCNc1ccc(S(=O)(=O)c2ccc(N)cc2)cc1N
inactive: [18] 103 % of control | [19] 92 % of control | [20] 92 % of control

O=[As](O)(c1ccccc1)C1CCCCC1O (stereo not drawn)
inactive: [17] 98 % of control

OC1CC2C=CC1CC2 (stereo not drawn)
inactive: [18] 97 % of control | [19] 94 % of control | [20] 100 % of control

COc1cc2c(cc1OC)C1=NN(c3ccccc3)C(=O)C1CC2 (stereo not drawn)
inactive: endpoint: mean survival time, dose: 100.0 mg/kg/injection, schedule: Q04DX002 (ip), vehicle: saline with Tween-80 103 % of control | endpoint: mean survival time, dose: 200.0 mg/kg/injection, schedule: Q04DX002 (ip), vehicle: saline with Tween-80 95 % of control | endpoint: mean survival time, dose: 400.0 mg/kg/injection, schedule: Q04DX002 (ip), vehicle: saline with Tween-80 95 % of control

— PubChem BioAssay AID256 (DTP/NCI, 2004)
